This is an account of results in patent US6790848B2, “4-piperazinylindole derivatives with 5-HT6 receptor affinity” (Syntex (U.S.A.) LLC, priority 2001, dated 2004).

Structures can show the parent of a compound that is named as a salt.

As usually defined, the melting point is the temperature of the solid-liquid transition.

With `COc1cccc(S(=O)(=O)n2ccc3c(N4CCNCC4)cccc32)c1` (as salt: trifluoroacetate) [1-(3-methoxy-benzenesulfonyl)-4-piperazin-1-yl-1H-indole], the melting point is 221 °C (dec.).
On to `CS(=O)(=O)c1ccc(S(=O)(=O)n2ccc3c(N4CCNCC4)cccc32)cc1` (as salt: trifluoroacetate) [1-(4-methanesulfonyl-benzenesulfonyl)-4-piperazin-1-yl-1H-indole], for which the melting point was 234 to 235 °C (dec.).
Consider `O=S(=O)(c1cccs1)n1ccc2c(N3CCNCC3)cccc21` (as salt: trifluoroacetate) [4-piperazin-1-yl-1-(thiophene-2-sulfonyl)-1H-indole], for which the melting point fell in the range of 208 to 209 °C.
As to `CS(=O)(=O)c1ccc(F)c(S(=O)(=O)n2ccc3c(N4CCNCC4)cccc32)c1` (as salt: trifluoroacetate) [1-(2-fluoro-5-methanesulfonyl-benzenesulfonyl)-4-piperazin-1-yl-1H-indole], the melting point is 172 to 173 °C (dec.).
For `CC(C)(C)c1ccc(S(=O)(=O)n2ccc3c(N4CCNCC4)cccc32)cc1` (as salt: trifluoroacetate) [1-(4-ter-butyl-benzenesulfonyl)-4-piperazin-1-yl-1H-indole], the melting point is 231 to 232 °C (dec.).
As for `CCCS(=O)(=O)c1cccc(S(=O)(=O)n2ccc3c(N4CCNCC4)cccc32)c1` (as salt: trifluoroacetate) [4-piperazin-1-yl-1-[3-(propane-1-sulfonyl)-benzenesulfonyl]-1H-indole], the figure is 173 to 174 °C; as for `O=S(=O)(c1cccc(F)c1)n1ccc2c(N3CCNCC3)cccc21` (as salt: trifluoroacetate) [1-(3-fluoro-benzenesulfonyl)-4-piperazin-1-yl-1H-indole], 227 to 228 °C (dec.).
